The source of these data is patent US9822157B2 (priority 2013, dated 2017).

In this assay the target is T1, human ferroportin (Homo sapiens, UniProt Q9NP59).
T1 sequence (Q9NP59 1-571): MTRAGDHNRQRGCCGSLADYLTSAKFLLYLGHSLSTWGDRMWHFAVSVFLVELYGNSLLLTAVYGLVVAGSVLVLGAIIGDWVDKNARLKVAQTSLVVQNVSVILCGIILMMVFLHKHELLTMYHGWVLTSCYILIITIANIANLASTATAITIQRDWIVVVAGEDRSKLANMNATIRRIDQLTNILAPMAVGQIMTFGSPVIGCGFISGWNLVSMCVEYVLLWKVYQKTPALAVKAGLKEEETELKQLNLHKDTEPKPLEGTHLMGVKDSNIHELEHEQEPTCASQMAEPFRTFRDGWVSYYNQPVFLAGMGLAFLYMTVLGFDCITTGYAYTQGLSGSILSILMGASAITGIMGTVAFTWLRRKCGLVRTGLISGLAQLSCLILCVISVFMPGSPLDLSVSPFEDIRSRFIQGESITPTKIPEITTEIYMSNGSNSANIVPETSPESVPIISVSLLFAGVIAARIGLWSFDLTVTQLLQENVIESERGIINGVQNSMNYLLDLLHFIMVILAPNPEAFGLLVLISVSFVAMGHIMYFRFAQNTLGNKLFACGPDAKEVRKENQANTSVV
The format is cell-based. The note with it: for % Activity At 1 uM: at 1 uM peptide, monomers and disulphide-linked dimers. The source says:
The cDNA encoding the human ferroportin (SLC40A1) was cloned from a cDNA clone from Origene (NM_014585). The DNA encoding the ferroportin was amplified by PCR using primers also encoding terminal restriction sites for subcloning, but without the termination codon. The ferroportin receptor was subcloned into a mammalian GFP expression vector containing a neomycin (G418) resistance marker in such that the reading frame of the ferroportin was fused in frame with the GFP protein. The fidelity of the DNA encoding the protein was confirmed by DNA sequencing. HEK293 cells were used for transfection of the ferroportin-GFP receptor expression plasmid. The cells were grown according to standard protocol in growth medium and transfected with the plasmids using Lipofectamine (manufacturer's protocol, Invitrogen). […] The cells were propagated and frozen in aliquots.
A retro inverse peptide is a peptide with a reversed sequence in all D amino acids. […] The EC50 of these reference compounds for ferroportin degradation was determined according to the activity assay described above.

[1] abbreviates: Hepcidin analog peptides, read-out: Potency EC50.
The mark [2] stands for this setting: read-out: EC50 (n > 3), alanine scan of Compound 1.
The mark [3] stands for this setting: read-out: EC50 (nM) (n > 3), alanine scan of Compound 18.
[4] abbreviates: read-out: EC50 (nM) (n > 3), alanine scan of Compound 1.
Setting [5] is: cysteine replacement scan of Mini-Hepcidin derivatives.
Setting [6] is: read-out: EC50 (n = 3), cells printed in μM, in vitro activity as in Example 2, peptide monomers and dimers dimerized through a single disulphide linkage, n = 3.
Where [7] appears, read: read-out: EC50 (nM) (n = 3), in vitro activity as in Example 2, peptide monomers and dimers dimerized through a single disulphide linkage, n = 3.

Like-named read-outs stand apart in the source and are kept apart here.

Regarding “(Isovaleric acid-DTHFPCIKF-NH2)2 [Compound 326]”, the “% Activity At 1 uM” value was 100%.

In the case of H-ATHFPCIIF-NH2 [Compound 284], the EC50 (commonly the concentration giving half of the maximal effect) runs as follows: under setting [1], above 1000 nM; under setting [2], above 1000 nM.

With “H-ATHFPICIFGPRSKGWVCM-NH2 (cysteine pairing not given here) [Compound 33]”, the EC50 by setting is: under setting [1], 184 nM; under setting [3], 184 nM.

Consider H-DAHFPCIIF-NH2 [Compound 52], for which the EC50 by setting is: under setting [1], 388 nM; under setting [4], 388 nM.

Regarding H-DTAFPCIIF-NH2 [Compound 283], the concentration giving a half-maximal response (EC50) was 739 nM under setting [1] and 739 nM under setting [4].

“H-DTAFPICIFGPRSKGWVCM-NH2 (cysteine pairing not given here) [Compound 60]”: the EC50 under setting [1] amounted to 498 nM and the EC50 under setting [3] was found to be 498 nM.

With H-DTHAPCIIF-NH2 [Compound 282], for the setting “Hepcidin analog peptides”, the “Potency EC50 (nM)” value is recorded as “Inactive”. Also, the “EC50 (nM) (n > 3)” value (alanine scan of Compound 1) was “Not active”.

Consider “H-DTHAPICIFGPRSKGWVCM-NH2 (cysteine pairing not given here) [Compound 38]”, for which the EC50 by setting is: under setting [1], 254 nM; under setting [3], 254 nM.

For the substance H-DTHCPIAIF-NH2 [Compound 277], the “Potency EC50 (nM)” value (Hepcidin analog peptides) is on record as “Inactive”. The “EC50 (nM) (n > 3)” value under setting [5] is reported as “Not active”.

In the case of H-DTHFACIIF-NH2 [Compound 280], the EC50 runs as follows: under setting [1], above 1000 nM; under setting [2], above 1000 nM.

Turning to “H-DTHFAICIFGPRSKGWVCM-NH2 (cysteine pairing not given here) [Compound 26]”, the EC50 worked out at 147 nM under setting [1] and 147 nM under setting [3].

Consider “H-DTHFGCIIFGPRSKGWVCK-NH2 (cysteine pairing not given here) [Compound 123]”, for which the “Potency EC50 (nM)” value (Hepcidin analog peptides) is reported as “Inactive”.

Take “H-DTHFKCIIFGPRSKGWVCK-NH2 (cysteine pairing not given here) [Compound 131]”: under “Hepcidin analog peptides”, the “Potency EC50 (nM)” value is “Inactive”.

With H-DTHFPCAIF-NH2 [Compound 279], the 50% effective concentration (EC50) under setting [1] was above 1000 nM and the EC50 under setting [2] was above 1000 nM.

Regarding H-DTHFPCIAF-NH2 [Compound 51], the EC50 turned out to be 382 nM under setting [1] and 382 nM under setting [4].

On to H-DTHFPCIEF-NH2 [Compound 287], for which the EC50 under setting [1] was above 1000 nM.

Turning to H-DTHFPCIEK-NH2 [Compound 310], the “% Activity At 1 uM” value came to 0%. Under setting [6], the EC50 was above 1000 nM.

Regarding H-DTHFPCIF-NH2 [Compound 293], the “% Activity At 1 uM” value amounted to 52%.

On to H-DTHFPCIFF-NH2 [Compound 56], for which the half-maximal effective concentration (EC50) under setting [1] was determined as 441 nM.

Take H-DTHFPCIIA-NH2 [Compound 278]: the EC50 is, setting by setting: under setting [1], above 1000 nM; under setting [2], above 1000 nM.

“H-DTHFPCIIFGPRARGWVCK-NH2 (cysteine pairing not given here) [Compound 87]”: the EC50 under setting [1] was above 1000 nM.

As for “H-DTHFPCIIFGPRSKGWVCK-NH2 (cysteine pairing not given here) [Compound 86]”, the EC50 under setting [1] is above 1000 nM.

With “H-DTHFPCIIFGPRSKGWVCM-NH2 (cysteine pairing not given here) [Compound 21]”, under setting [1], the EC50 worked out at 46 nM.

On to “H-DTHFPCIIFGPRSRGVCK-NH2 (cysteine pairing not given here) [Compound 84]”, for which the EC50 under setting [1] is above 1000 nM.

Take “H-DTHFPCIIFGPRSRGWRCK-NH2 (cysteine pairing not given here) [Compound 80]”: the EC50 under setting [1] is above 1000 nM.

For the substance H-DTHFPCIIFK-NH2 [Compound 55], the EC50 under setting [1] stood at 419 nM.

H-DTHFPCIIK-NH2 [Compound 304]: the “% Activity At 1 uM” value is listed as 55%. For the same substance, the EC50 under setting [6] is above 1000 nM.

H-DTHFPCIIR-NH2 [Compound 305]: the “% Activity At 1 uM” value stood at 62%. For the same substance, the EC50 under setting [6] was above 1000 nM.

For H-DTHFPCIKFF-NH2 [Compound 297], the “% Activity At 1 uM” value is 64%. For the same substance, the EC50 under setting [7] is above 300 nM.

In the case of “H-DTHFPCIKFGPRSKGWVCM-NH2 (cysteine pairing not given here) [Compound 136]”, under setting [1], the EC50 came out at 669 nM.

As for H-DTHFPCILF-NH2 [Compound 308], the “% Activity At 1 uM” value is 89%. Also, the EC50 under setting [7] was above 300 nM.

For the substance H-DTHFPCILK-NH2 [Compound 309], the “% Activity At 1 uM” value amounted to 55%. The EC50 under setting [7] is above 300 nM.

Consider “H-DTHFPCIRFGPRSRGWRCK-NH2 (cysteine pairing not given here) [Compound 82]”, for which the EC50 under setting [1] is above 1000 nM.

As to “H-DTHFPCIRFGPRSRGWVCK-NH2 (cysteine pairing not given here) [Compound 81]”, the EC50 under setting [1] was above 1000 nM.

For the substance “H-DTHFPCISFGPRSKGWVCK-NH2 (cysteine pairing not given here) [Compound 101]”, under setting [1], the EC50 is above 1000 nM.

With “H-DTHFPCISFGPRSKGWVCM-NH2 (cysteine pairing not given here) [Compound 135]”, the EC50 under setting [1] came to 545 nM.

In the case of H-DTHFPCIVF-NH2 [Compound 307], the “% Activity At 1 uM” value is given as 75%. For the same substance, the EC50 under setting [7] was above 300 nM.

As for “H-DTHFPCIYFGPRSKGWVCK-NH2 (cysteine pairing not given here) [Compound 85]”, under setting [1], the EC50 was 705 nM.

With “H-DTHFPCRRFGPRSKGWVC-NH2 (cysteine pairing not given here) [Compound 70]”, the “Potency EC50 (nM)” value (Hepcidin analog peptides) is “Inactive”.

In the case of H-DTHFPIAICI-NH2 [Compound 274], the “Potency EC50 (nM)” value (Hepcidin analog peptides) is reported as “Inactive”. In addition, the “EC50 (nM) (n > 3)” value under setting [5] is reported as “Not active”.

On to H-DTHFPIAIFAAGICI-NH2 [Compound 269], for which, for the setting “Hepcidin analog peptides”, the “Potency EC50 (nM)” value is listed as “Inactive”. Further, the “EC50 (nM) (n > 3)” value under setting [5] was “Not active”.

As for H-DTHFPIAIFAAICI-NH2 [Compound 270], the “Potency EC50 (nM)” value (Hepcidin analog peptides) is “Inactive”. For the same substance, under setting [5], the “EC50 (nM) (n > 3)” value is reported as “Not active”.

Take H-DTHFPIAIFAICI-NH2 [Compound 271]: the “Potency EC50 (nM)” value (Hepcidin analog peptides) is “Inactive”. Besides, under setting [5], the “EC50 (nM) (n > 3)” value is given as “Not active”.

As to H-DTHFPIAIFGPRSKGWVAM-NH2 [Compound 69], the “Potency EC50 (nM)” value (Hepcidin analog peptides) is “Inactive”. In addition, under “alanine scan of Compound 18”, the “EC50 (nM) (n > 3)” value is listed as “Inactive”.

On to H-DTHFPIAIFICI-NH2 [Compound 272], for which, for the setting “Hepcidin analog peptides”, the “Potency EC50 (nM)” value is reported as “Inactive”. Besides, under setting [5], the “EC50 (nM) (n > 3)” value is “Not active”.

Turning to H-DTHFPIAIICI-NH2 [Compound 273], the “Potency EC50 (nM)” value (Hepcidin analog peptides) is “Inactive”. Also, the “EC50 (nM) (n > 3)” value under setting [5] is listed as “Not active”.

For “H-DTHFPICAFGPRSKGWVCM-NH2 (cysteine pairing not given here) [Compound 68]”, the EC50 by setting is: under setting [1], above 10000 nM; (read-out: EC50 (n > 3), alanine scan of Compound 18) above 10000 nM.

Turning to “H-DTHFPICIAGPRSKGWVCM-NH2 (cysteine pairing not given here) [Compound 67]”, the EC50 came out at 2470 nM under setting [1] and 2470 nM under setting [3].

“H-DTHFPICIFAPRSKGWVCM-NH2 (cysteine pairing not given here) [Compound 22]”: the EC50 came to 9430 nM under setting [1] and 9430 nM under setting [3].

As to “H-DTHFPICIFGPASKGWVCM-NH2 (cysteine pairing not given here) [Compound 34]”, the EC50 under setting [1] is 206 nM and the EC50 under setting [3] was 206 nM.

Take “H-DTHFPICIFGPHRSKGWVCM-NH2 (cysteine pairing not given here) [Compound 27]”: the EC50 under setting [1] was 149 nM.
